Data published in EP4763228A1, “PENTACYCLIC ACTIVE COMPOUND AND CONJUGATE THEREOF AND USE THEREOF” (Keymed Biosciences (Chengdu) Co., Ltd., priority 2023, dated 2025).

Tests used:
Experiment in all cases: In vitro proliferation inhibition of compounds of formula (GH), CCK8, 6 days
Type in all cases: cell-based, human
SK-BR-3 tumor cells = test system: SK-BR-3 tumor cells
Experimental: (§1) The object of this experiment is to test the in vitro killing activity of the compounds of the formula (GH) of the present disclosure on A549 tumor cells (human lung cancer cells, Beijing Tongren Hospital), SK-BR-3 tumor cells (human breast cancer cells, Wuhan Punosai, Cat. No. CL-0211) and NCI-N87 tumor cells (human gastric cancer cells, Cell Resource Center, Institute of Basic Medical Sciences, Chinese Academy of Medical Sciences, Cat. No. 3111C0001CCC000481). The cells were treated with different concentrations of the compounds in vitro and cultured for 6 days, then the in vitro activity of the test compounds was evaluated based on IC50 values by measuring the number of viable cells using CCK8 (Cell Counting Kit-8, Cat. No. TS547) reagent.
(§2) Taking the test method of in vitro killing activity against A549 cells, SK-BR-3 cells and NCI-N87 cells as an example, the test was carried out as follows. […] After the cells were completely digested, 10 mL cell culture medium containing 10% FBS was added, the digested cells were eluted, centrifuged at 300 g for 5 min, and the supernatant was discarded. […]

NCI-N87 tumor cells = test system: NCI-N87 tumor cells
Experimental: as §1, §2

A549 tumor cells = test system: A549 tumor cells
Experimental: as §1, §2

[1] = conclusion in words, comparison with Reference 1 at the same dose

In the case of `O=C1OCc2c(cc3n(c2=O)Cc2c-3nc3cc4c(cc3c2CCCCO)OCO4)[C@@]1(O)CC1CC1` [Compound 3], the IC50 (SK-BR-3 tumor cells; Homo sapiens, 144 h, SK-BR-3 cells, 6 days, CCK8, 2% FBS) was 0.24 nM, the “inhibitory effect on the proliferation of SK-BR-3 cells in vitro” value (SK-BR-3 tumor cells; [1]) was “significantly higher inhibitory effect” and the IC50 (NCI-N87 tumor cells; Homo sapiens, 144 h, NCI-N87 cells, 6 days, CCK8, 2% FBS) was 0.44 nM. The “inhibitory effect on the proliferation of NCI-N87 cells in vitro” value (NCI-N87 tumor cells; [1]) was “significantly higher inhibitory effect”, the IC50 (A549 tumor cells; Homo sapiens, 144 h, A549 cells, 6 days, CCK8, 2% FBS) was 1.68 nM and the “inhibitory effect on the proliferation of A549 cells in vitro” value (A549 tumor cells; [1]) was “significantly higher inhibitory effect”.
